Test results published in patent publication US11760773B2, “Small molecule drug conjugates of gemcitabine monophosphate” (MaveriX Oncology, Inc., priority 2018, dated 2023).

Assays:
[1] = Comparative plasma PK of Int 1-4 versus gemcitabine in mouse (study a); assay type: in vivo; conditions: plasma, CD-1 mice; for MRT inf: read-out: MRT0-inf; for MRT last: read-out: MRT0-last
[2] = Comparative plasma PK of Compound 1 versus Int 1-4 in male CD-1 mice (study b); assay type: in vivo; conditions: male, CD-1, mouse, iv
Experimental: Objectives: to compare the plasma pharmacokinetics and stability of Compound 1 with its non-phosphorylated SMDC analog (Int 1-4) and in plasma following a single intravenous infusion administration of Compound 1 at 11.6 mg/kg and 23.2 mg/kg with Int 1-4 (formulation F1 & F2) at 10.0 mg/kg in male CD-1 mice
PK measurements: compare PK parameters C0, CL, Vdss, Cmax, tmax, t1/2, AUC(0-t), AUC(0-inf), MRT(0-t), MRT(0-inf) for Compound 1 and Int 1-4

[3] = Int 1-4 and gemcitabine comparative PK in male cynomolgus monkey (study g); assay type: in vivo; conditions: plasma, male cynomolgus monkey; for AUC(0-inf): read-out: AUC0-inf; for MRT inf: read-out: MRT0-inf; for MRT last: read-out: MRT0-last; for Vd: read-out: Vdss
Experimental: Objectives: to compare the plasma pharmacokinetics and stability of Int 1-4 versus gemcitabine in plasma following single intravenous infusion administration of Int 1-4 at 5 mg/kg and 10 mg/kg with equimolar gemcitabine at 2.65 mg/kg and 5.29 mg/kg in male cynomolgous monkeys
PK measurements: compare PK parameters C0, CL, Vdss, Cmax, tmax, t1/2, AUC(0-t), AUC(0-inf), MRT(0-t), MRT(0-inf) for Int 1-4 with gemcitabine

[4] = Compound 1 and gemcitabine plasma PK in the male cynomolgus monkey (study h); assay type: in vivo; conditions: plasma; for AUC(0-inf): read-out: AUC0-inf; for MRT inf: read-out: MRT0-inf; for MRT last: read-out: MRT0-last
Experimental: Objectives: to compare the plasma pharmacokinetics and stability of the Compound 1 with Int 1-4 and in plasma following a single intravenous infusion administration of Compound 1 at 5 mg/kg and 10 mg/kg with equimolar gemcitabine at 2.28 mg/kg in male cynomolgous monkeys.
PK measurements: compare PK parameters C0, CL, Vdss, Cmax, tmax, t1/2, AUC(0-t), AUC(0-inf), MRT(0-t), MRT(0-inf) for Compound 1 and Int 1-4 with gemcitabine.

[5] = Comparative PK of Int 1-4 versus gemcitabine in rat plasma (study i); assay type: in vivo, Sprague-Dawley rats; conditions: for half-life: Sprague-Dawley, rat, iv; for MRT inf: read-out: MRT0-inf; for MRT last: read-out: MRT0-last
Description: PK measurements: compare PK parameters C0, CL, Vdss, Cmax, tmax, t1/2, AUC(0-t), AUC(0-inf), MRT(0-t), MRT(0-inf) for Int 1-4 and gemcitabine.

[6] = Comparative dog plasma PK of Int 1-4 versus gemcitabine (study k); assay type: in vivo; conditions: male beagle dog; for AUC(0-inf): read-out: AUC0-inf; for Cmax: read-out: Cmax; for MRT inf: read-out: MRT0-inf; for MRT last: read-out: MRT0-last
Experimental: Objectives: to compare the plasma pharmacokinetics and stability of Int-4 in plasma following single intravenous infusion administration of Int 1-4 at 5 mg/kg and 10 mg/kg versus gemcitabine at 5 mg/kg in the male Beagle dog

[7] = mouse, after iv Int 1-4 9.4 mg/kg
[8] = mouse, after iv gemcitabine 5.29 mg/kg
[9] = after iv gemcitabine 5.29 mg/kg
[10] = 10 mg/kg, after iv Int 1-4 10.0 mg/kg, Formulation 1
[11] = 10 mg/kg, after iv Int 1-4 10.0 mg/kg, Formulation 2
[12] = 11.6 mg/kg, after iv Compound 1 11.6 mg/kg
[13] = 23.2 mg/kg, after iv Compound 1 23.2 mg/kg
[14] = after iv Int 1-4 5 mg/kg (study g)
[15] = after iv Int 1-4 10 mg/kg (study g)
[16] = after iv gemcitabine 2.65 mg/kg
[17] = after iv gemcitabine 2.28 mg/kg
[18] = plasma, Sprague-Dawley rat, after iv Int 1-4 10.0 mg/kg
[19] = plasma, Sprague-Dawley rat, after iv gemcitabine 4.47 mg/kg
[20] = after iv Int 1-4 5 mg/kg (study k)
[21] = after iv Int 1-4 10 mg/kg (study k)

## Nc1ccn([C@@H]2O[C@H](CO)[C@@H](O)C2(F)F)c(=O)n1 [Gemcitabine, gemcitabine]
[1]; [7]
  AUC(0-t): 64.9 ng·h/mL
  half-life: 0.968 h
  MRT inf: 1.27 h
  MRT last: 0.875 h
[1]; mouse, after iv Int 1-4 9.4 mg/kg, read-out: AUC0-inf
  AUC(0-inf): 74.1 ng·h/mL
[1]; mouse, after iv Int 1-4 9.4 mg/kg, read-out: Cmax
  Cmax: 81.9 ng/mL
[1]; mouse, after iv Int 1-4 9.4 mg/kg, read-out: Tmax
  Tmax: 8.34 min
[1]; [8]
  C0: 6430 ng/mL
  clearance: 59 mL/min/kg
  half-life: ~0.9 h
  MRT inf: 0.541 h
  MRT last: 0.503 h
[1]; mouse, after iv gemcitabine 5.29 mg/kg, read-out: Vdss
  Vd: 1.84 L/kg
[1]; after iv Int 1-4 9.4 mg/kg
  AUC0-inf/AUC0-last: 116%
[1]; [9]
  AUC0-inf/AUC0-last: 101%
  AUC0-last: 1383 ng·h/mL
  AUC(0-inf): 1393 ng·h/mL
  T1/2: 0.868 h
[2]; [10]
  AUC(0-t): 98.6 ng·h/mL
  half-life: 1.62 h
[2]; 10 mg/kg, after iv Int 1-4 10.0 mg/kg, Formulation 1, read-out: AUC0-inf
  AUC(0-inf): 120 ng·h/mL
[2]; 10 mg/kg, after iv Int 1-4 10.0 mg/kg, Formulation 1, read-out: Cmax
  Cmax: 107 ng/mL
[2]; 10 mg/kg, after iv Int 1-4 10.0 mg/kg, Formulation 1, read-out: MRT0-inf
  MRT inf: 1.98 h
[2]; 10 mg/kg, after iv Int 1-4 10.0 mg/kg, Formulation 1, read-out: MRT0-last
  MRT last: 1.15 h
[2]; 10 mg/kg, after iv Int 1-4 10.0 mg/kg, Formulation 1, read-out: Tmax
  Tmax: 3.67 min
[2]; [11]
  AUC(0-t): 85.1 ng·h/mL
  half-life: 1.66 h
[2]; 10 mg/kg, after iv Int 1-4 10.0 mg/kg, Formulation 2, read-out: AUC0-inf
  AUC(0-inf): 102 ng·h/mL
[2]; 10 mg/kg, after iv Int 1-4 10.0 mg/kg, Formulation 2, read-out: Cmax
  Cmax: 93.6 ng/mL
[2]; 10 mg/kg, after iv Int 1-4 10.0 mg/kg, Formulation 2, read-out: MRT0-inf
  MRT inf: 2.1 h
[2]; 10 mg/kg, after iv Int 1-4 10.0 mg/kg, Formulation 2, read-out: MRT0-last
  MRT last: 1.25 h
[2]; 10 mg/kg, after iv Int 1-4 10.0 mg/kg, Formulation 2, read-out: Tmax
  Tmax: 2 min
[2]; [12]
  AUC(0-t): 97.9 ng·h/mL
  half-life: 1.04 h
[2]; 11.6 mg/kg, after iv Compound 1 11.6 mg/kg, read-out: AUC0-inf
  AUC(0-inf): 112 ng·h/mL
[2]; 11.6 mg/kg, after iv Compound 1 11.6 mg/kg, read-out: Cmax
  Cmax: 152 ng/mL
[2]; 11.6 mg/kg, after iv Compound 1 11.6 mg/kg, read-out: MRT0-inf
  MRT inf: 1.41 h
[2]; 11.6 mg/kg, after iv Compound 1 11.6 mg/kg, read-out: MRT0-last
  MRT last: 1.01 h
[2]; 11.6 mg/kg, after iv Compound 1 11.6 mg/kg, read-out: Tmax
  Tmax: 1.5 min
[2]; [13]
  AUC(0-t): 202 ng·h/mL
  half-life: 1.03 h
[2]; 23.2 mg/kg, after iv Compound 1 23.2 mg/kg, read-out: AUC0-inf
  AUC(0-inf): 218 ng·h/mL
[2]; 23.2 mg/kg, after iv Compound 1 23.2 mg/kg, read-out: Cmax
  Cmax: 222 ng/mL
[2]; 23.2 mg/kg, after iv Compound 1 23.2 mg/kg, read-out: MRT0-inf
  MRT inf: 1.4 h
[2]; 23.2 mg/kg, after iv Compound 1 23.2 mg/kg, read-out: MRT0-last
  MRT last: 1.11 h
[2]; 23.2 mg/kg, after iv Compound 1 23.2 mg/kg, read-out: Tmax
  Tmax: 2 min
[3]; [14]
  AUC(0-t): 5.37 ng·h/mL
  half-life: 0.15 h
  AUC(0-inf): 8.13 ng·h/mL
  MRT inf: 0.24 h
  MRT last: 0.15 h
  Vd: 0.349 L/kg
[3]; [15]
  AUC(0-t): 16.2 ng·h/mL
  half-life: 0.18 h
  AUC(0-inf): 17.5 ng·h/mL
  MRT inf: 0.26 h
  MRT last: 0.21 h
[3]; [16]
  AUC(0-t): 154 ng·h/mL
  C0: 17000 ng/mL
  clearance: 323 mL/min/kg
  half-life: 0.02 h
  AUC(0-inf): 154 ng·h/mL
  MRT inf: 0.01 h
  MRT last: 0.01 h
  Vd: 0.221 L/kg
[4]; after iv Compound 1 5 mg/kg
  AUC(0-t): 7.85 ng·h/mL
  half-life: 7.8 min
  AUC(0-inf): 7 ng·h/mL
  MRT inf: 0.23 h
  MRT last: 0.19 h
[4]; [17]
  AUC(0-t): 164 ng·h/mL
  C0: 13400 ng/mL
  clearance: 247 mL/min/kg
  half-life: 1.2 min
  AUC(0-inf): 165 ng·h/mL
  MRT inf: 0.02 h
  MRT last: 0.02 h
[4]; after iv gemcitabine 2.28 mg/kg, read-out: Vdss
  Vd: 0.231 L/kg
[5]; plasma, 4.47 mg/kg, plasma, Sprague-Dawley rat, after iv gemcitabine 4.47 mg/kg
  half-life: ~3.3 h
[5]; plasma, 10 mg/kg, plasma, Sprague-Dawley rat, after iv Int 1-4 10.0 mg/kg
  half-life: ~9.43 h
[5]; [18]
  AUC0-inf/AUC0-last: 235%
  AUC(0-inf): 6000 ng·h/mL
  AUC(0-t): 2760 ng·h/mL
  T1/2: 9.43 h
  MRT inf: 13.8 h
  MRT last: 3.38 h
[5]; plasma, Sprague-Dawley rat, after iv gemcitabine
  clearance: 4.36 mL/min/kg
[5]; [19]
  AUC0-inf/AUC0-last: 122%
  AUC(0-inf): 18000 ng·h/mL
  AUC(0-t): 14700 ng·h/mL
  C0: 8410 ng/mL
  T1/2: 3.26 h
  MRT inf: 4.63 h
  MRT last: 2.82 h
[5]; plasma, Sprague-Dawley rat, after iv gemcitabine 4.47 mg/kg, read-out: Vdss
  Vd: 1.21 L/kg
[5]; rat versus mouse plasma, iv gemcitabine
  plasma half-life in rats relative to mice: 3 ×
[6]; [20]
  AUC(0-t): 2330 ng·h/mL
  half-life: 2.01 h
  AUC(0-inf): 2390 ng·h/mL
  Cmax: 872 ng/mL
  MRT inf: 2.7 h
  MRT last: 2.48 h
[6]; [21]
  AUC(0-t): 4140 ng·h/mL
  half-life: 1.6 h
  AUC(0-inf): 4290 ng·h/mL
  MRT inf: 2.45 h
  MRT last: 2.16 h
[6]; [9]
  AUC(0-t): 8230 ng·h/mL
  C0: 11500 ng/mL
  clearance: 11 mL/min/kg
  half-life: 2.04 h
  AUC(0-inf): 8600 ng·h/mL
  Cmax: 8620 ng/mL
  MRT last: 2.19 h
[6]; after iv gemcitabine 5.29 mg/kg, read-out: Vdss
  Vd: 1.61 L/kg
